Common to all, as to format: cell-based
For test [1], the system named is Plasmodium yoelii (17XNL) sporozoites. Briefly: Liver stage P. yoelii sporozoite invasion assay in HepG2-A16-CD81EGFP cells. From the text: Assay for Proliferation of Parasite in Infected Liver Cells
Compounds of the invention can be assayed to measure their capacity to inhibit proliferation of parasites in liver cells. The proliferation is quantified by determine the number of infected cells by immunofluorescence.
Due to the difficulty of successfully infecting immortalized human liver cell lines with the human malaria sporozoites (liver-stage parasite), rodent malaria sporozoites from Plasmodium yoelii (17XNL) and P. berghei (ANKA) are the preferred surrogate. Sporozoites are obtained from Anopheles stephensi mosquitoes supplied by the New York University Insectary, which ships the malaria-infected mosquitoes 10-13 days following the ingestion of an infective blood meal.
A transgenic HepG2 cell line expressing the tetraspanin CD81 receptor (HepG2-A16-CD81^EGFP) is used to increase the infectivity rate of rodent-malaria sporozoites into human cells. HepG2-A16-CD81^EGFP cells are stably transformed to express a GFP-CD81 fusion protein. A continuous in vitro culture of this line was maintained at 37° C. in 4% CO2 in complete media (CM) which contains: DMEM (Invitrogen, Carlsbad, USA) supplemented with 10% FCS, 0.29 mg/ml glutamine, 100 units penicillin and 100 μg/ml streptomycin (SigmaAldrich, USA).
Liver Stage P. yoelii Sporozoite Invasion Assay
Twenty to twenty-six hours prior to sporozoite infection, 7.5×10^3 HepG2-A16-CD81^EGFP cells are seeded into 384-well plates (Aurora 384 IQ-EB black plates with clear bottoms; 50 μl of 1.5×10^5 cells/ml in CM). These plates are incubated at 37° C. with 4% CO2 overnight. Two hours prior to infection, 50 nl of compound dissolved in DMSO (0.1% final DMSO concentration per well) were transferred with a PinTool (GNF Systems) into the assay plates (10 μM final concentration). A 1:3 serial dilution of atovaquone (10 μM at the highest final concentration) and wells treated only with DMSO were used as positive and negative controls, respectively.
Freshly dissected salivary glands from infected mosquitoes were homogenized in a glass tissue grinder, filtered twice through Nylon cell strainers (40 μm pore size, BD Falcon) and counted using a hemocytometer. The assay plate with HepG2-A16-CD81^EGFP cells and compound were then infected with 8×10^3 sporozoitesper well and the plates are subjected to a centrifugal force of 650×g to pellet the sporozoites onto the liver cell monolayer. The assay plate is incubated at 37° C. for 2 hours to permit sporozoite invasion, then the media is aspirated from the media plate, and replaced with 50 μl CM (containing a 5× concentration of penicillin/streptomycin; 500 units penicillin and 0.5 mg streptomycin per ml) per well. 50 nl of compound is re-introduced by PinTool and the assay plate incubated for 48 hours at 37° C. before quantification of infected cells by immunofluorescence.
Atovaquone and uninfected wells were used as controls on each plate. Two replicate plates are tested for each assay.
After fixing the cells by addition of 12.5 μl of 20% solution of paraformaldehyde (EMS, Hatfield, USA) to each assay well (4% final formaldehyde concentration), membranes were permeabilized with 0.5% Triton-X-100 (Thermo Fisher Scientific) and EEFs were stained using a mouse polyclonal serum raised against the Plasmodium yoelii heat shock protein 70 (PyHSP70), a DyLight 649 goat anti-mouse IgG, Fc(gamma) fragment specific secondary antibody (Jackson Immuno Research, Cat#115-495-071) and the Hoechst 33342 nucleic acid dye (Invitrogen, Carlsbad, USA). Stained EEFs were then quantified using the Opera Confocal High Content Screening System (Perkin Elmer, Waltham, USA). Images were collected using a 20× objective lens (20×/0.45 NA, LWD Plan Fluor, Olympus) at a binning of 2, using a 365 nm Xeon arc lamp illumination to detect the Hoechst-labeled nuclei and 635 nm laser line to excite DyLight649-labeled parasites. The image resolution yielded was approximately 0.66 μm/pixel (˜0.43 μm 2/pixel). […]

Test [2] has as its system P. falciparum (NF54 or 3D7 strain). Description: P. falciparum proliferation assay in infected human blood cells (SYBR Green). To be noted: Plasmodium falciparum. The method, then:
Assay for P. falciparum Proliferation in Infected Human Blood Cells
Compounds of the invention can be assayed to measure their capacity to inhibit proliferation of P. falciparum parasitemia in infected red blood cells. This parasite proliferation assay measures the increase in parasite DNA content using a DNA intercalating dye, SYBR Green® (INVITROGEN®) which has a high affinity for double stranded DNA.
NF54 or 3D7 P. falciparum strain is grown in complete culturing media until parasitemia reaches 3% to 8% with O+ human erythrocytes. […] 20 μl of screening media is dispensed into 384 well assay plates. 50 nl of compounds of the invention (in DMSO), including antimalarial controls (mefloquine, pyrimethamine and artemisinin), are then transferred into the assay plates, as well as DMSO alone to serve as a negative control for inhibition. Then 30 μl of a suspension of a NF54 or 3D7 P. falciparum infected erythrocytes in screening media is dispensed into the assay plates such that the final hematocrit is 2.5% with a final parasitemia of 0.3%. The plates are placed in a 37° C. incubator for 72 hours in a low oxygen environment containing 93% N2, 4% CO2, and 3% O2 gas mixture. 10 μl of lysis buffer (saponin, triton-X, EDTA) containing a 10× solution of SYBR Green I® in RPMI media is dispensed into the plates. The plates are lidded and kept at room temperature overnight for the lysis of the infected red blood cells. The fluorescence intensity is measured (excitation 425 nm, emission 530 nm) using the Envision™ system (Perkin Elmer). The percentage inhibition of 50%, EC50, is calculated for each compound.

In test [3] the test system is Plasmodium berghei line expressing luciferase (Pb-luc) sporozoites. Briefly: Liver stage P. berghei luciferase proliferation assay in CD81-GFP-HepG2 cells. As to conditions: values marked * in Table 2, CD81-GFP-HepG2 cells, 48 h, luminescence, read-out: EC50 (nM), P. berghei luciferase Proliferation Assay. The method, then:
Liver Stage P. berghei Luciferase Proliferation Assay
CD81-GFP-HepG2 cells (obtained from the lab of Dominique Mazier) were seeded into GNF custom Greiner plates (1536-well, white, TC-treated, solid bottom). A final density of 3000 cells/well was achieved by dispensing 5 ul per well of a 600,000 cells/mL resuspended in Assay Media (AM; phenol-red free DMEM, 2% FBS, 5×PSG) via a MicroFlo (Biotek; 5 ul dispense cassette). The seeded assay plates were incubated overnight at 37° C. in an incubator with 5% CO2. The following day, a 10 nL volume of compound was transferred acoustically (ECHO 525, Labcyte Inc.) to each well in the assay plate. Sporozoite forms of a Plasmodium berghei line expressing luciferase (Pb-luc) were dissected and purified from infected Anopheles stephensi mosquitoes (provided by the NYU insectary) as previously described by Meister et al. (Science, 2011). Purified sporozoites (spz) were stored at 250 spz/uL in chilled PBS supplemented with 3% BSA. 3 uL of Pb-luc spz solution was dispensed to each assay well using a Bottlevalve equipped with a custom, single-tip dispense head (GNF Systems). Assay plates were centrifuged at 330×g for 3 minutes to pellet the spz, then the assay plates were returned to the 37° C. incubator for 48 h. Luciferase signal, which corresponds with parasite proliferation, was detected by adding 2 uL of BrightGlo (Promega) to each well using the MicroFlo (Biotek; 1 ul cassette). Luminescence was immediately measured on an Envision MultiLabel Plate Reader (PerkinElmer).

Setting [4] is: read-out: EC50, P. yoelii Sporozoite Invasion Assay.
Where [5] appears, read: read-out: EC50, P. falciparum Proliferation Assay.
The mark [6] stands for this setting: Erythrocyte, infected human erythrocytes, 72 hours, SYBR Green fluorescence, read-out: EC50 (nM), inhibitory efficacy in delaying P. falciparum proliferation in infected human blood cells.
Where [7] appears, read: values without * in Table 2, HepG2-A16-CD81EGFP liver cells, 48 hours, immunofluorescence, read-out: EC50 (nM), P. yoelii Sporozoite Invasion Assay.

Molecules are shown by their SMILES. Like-named read-outs stand apart in the source and are kept apart here. Where only a bound is given, the exact number is not on record here.

Take `CN(C(=O)c1ccn2ncc(-c3ccc(C(F)(F)F)cc3)c2c1)c1ccc(C#N)cc1` [Example 1, N-(4-cyanophenyl)-N-methyl-3-(4-(trifluoromethyl)phenyl)pyrazolo[1,5-a]pyridine-5-carboxamide]: the EC50 in test [1] (setting [4]) was under 10 nM. `CN(C(=O)c1ccn2ncc(-c3ccc(C(N)=O)cc3)c2c1)c1ccc(C#N)cc1` [Example 19, 3-(4-carbamoylphenyl)-N-(4-cyanophenyl)-N-methylpyrazolo[1,5-a]pyridine-5-carboxamide]: in test [1] (setting [4]), the EC50 is under 10 nM. Turning to `CN(C(=O)c1ccn2ncc(-c3ccc(C(N)=O)cc3)c2c1)c1ccc(C#N)cn1` [Example 32, 3-(4-carbamoylphenyl)-N-(5-cyanopyridin-2-yl)-N-methylpyrazolo[1,5-a]pyridine-5-carboxamide], the EC50 is under 5 nM in test [2] (setting [5]) and under 10 nM in test [1] (setting [4]). In the same order, the values of `CNC(=O)c1ccc(-c2cnn3ccc(C(=O)N(C)c4ccc(C#N)cn4)cc23)cc1` [Example 75, N-(5-cyanopyridin-2-yl)-N-methyl-3-(4-(methylcarbamoyl)phenyl)pyrazolo[1,5-a]pyridine-5-carboxamide] are under 5 nM and under 10 nM. In the case of `CCN(C(=O)c1ccn2ncc(-c3ccc(C(=O)NC)cc3)c2c1)c1ccc(C#N)cn1` [Example 90, N-(5-Cyanopyridin-2-yl)-N-ethyl-3-(4-(methylcarbamoyl)phenyl)pyrazolo[1,5-a]pyridine-5-carboxamide], the EC50 in test [2] (setting [6]) worked out at 8 nM; in test [1] (setting [7]), 39 nM. For `CNC(=O)c1ccc(-c2cnn3ccc(C(=O)N(c4ccc(C#N)cn4)C(C)C)cc23)cc1` [Example 91, N-(5-cyanopyridin-2-yl)-N-isopropyl-3-(4-(methylcarbamoyl)phenyl)pyrazolo[1,5-a]pyridine-5-carboxamide], in that order: 13 nM and 23 nM. For `CNC(=O)c1ccc(-c2cnn3ccc(C(=O)N(c4ccc(C#N)cn4)C4CC4)cc23)cc1` [Example 93, N-(5-Cyanopyridin-2-yl)-N-cyclopropyl-3-(4-(methylcarbamoyl)phenyl)pyrazolo[1,5-a]pyridine-5-carboxamide], in that order: 6 nM and 10 nM. As for `CNC(=O)c1ccc(-c2cnn3ccc(C(=O)N(C)c4ccc(C#N)cc4)cc23)cn1` [Example 97, N-(4-Cyanophenyl)-N-methyl-3-(6-(methylcarbamoyl)pyridin-3-yl)pyrazolo[1,5-a]pyridine-5-carboxamide], the values for the EC50 in test [2] (setting [6]) and in test [1] (setting [7]) were 13 nM and 92 nM, respectively. Take `CCN(C(=O)c1ccn2ncc(-c3ccc(C(=O)NC)nc3)c2c1)c1ccc(C(F)(F)F)cn1` [Example 157, N-ethyl-3-(6-(methylcarbamoyl)pyridin-3-yl)-N-(5-(trifluoromethyl)pyridin-2-yl)pyrazolo[1,5-a]pyridine-5-carboxamide]: the figures for the EC50 in test [2] (setting [6]) and in test [3] were 91 nM and 60 nM, respectively.

On to `CCN(C(=O)c1ccn2ncc(-c3ccc(S(C)(=O)=O)cc3)c2c1)c1ccc(C#N)cn1` [Example 158, N-(5-cyanopyridin-2-yl)-N-ethyl-3-(4-(methylsulfonyl)phenyl)pyrazolo[1,5-a]pyridine-5-carboxamide], for which the EC50 in test [2] (setting [6]) came to 111 nM; in test [3], 11 nM. Take `CCN(C(=O)c1ccn2ncc(-c3ccc(C(=O)NC)nc3)c2c1)c1ccc(F)cn1` [Example 159, N-ethyl-N-(5-fluoropyridin-2-yl)-3-(6-(methylcarbamoyl)pyridin-3-yl)pyrazolo[1,5-a]pyridine-5-carboxamide]: the values for the EC50 in test [2] (setting [6]) and in test [3] were 56 nM and 43 nM, respectively. For `CNC(=O)c1ccc(-c2cnn3ccc(C(=O)N(c4ccc(C(F)(F)F)cn4)C4CCC4)cc23)cc1` [Example 160, N-cyclobutyl-3-(4-(methylcarbamoyl)phenyl)-N-(5-(trifluoromethyl)pyridin-2-yl)pyrazolo[1,5-a]pyridine-5-carboxamide], in that order: 4 nM and 4 nM. In the case of `CNC(=O)c1ccc(-c2cnn3ccc(C(=O)N(c4ccc(C(F)(F)F)cn4)C4CCC4)cc23)cn1` [Example 161, N N-cyclobutyl-3-(6-(methylcarbamoyl)pyridin-3-yl)-N-(5-(trifluoromethyl)pyridin-2-yl)pyrazolo[1,5-a]pyridine-5-carboxamide], the values for the EC50 in test [2] (setting [6]) and in test [3] were 68 nM and 41 nM, respectively. For `CCN(C(=O)c1ccn2ncc(-c3ccc(C(=O)NC)cc3)c2c1)c1ccc(C#N)c(OCCO)n1` [Example 162, N-(5-cyano-6-(2-hydroxyethoxyl)pyridin-2-yl)-N-ethyl-3-(4-(methylcarbamoyl)phenyl)pyrazolo[1,5-a]pyridine-5-carboxamide], the EC50 came out at 9 nM in test [2] (setting [6]) and 8 nM in test [3]. For `CNC(=O)c1ccc(-c2cnn3ccc(S(=O)(=O)N(C)c4ccc(C#N)cn4)cc23)cc1` [Example 163, 4-(5-(N-(5-Cyanopyridin-2-yl)-N-methylsulfamoyl)pyrazolo[1,5-a]pyridin-3-yl)-N-methyl benzamide], in that order: 4 nM and 2 nM.

Values taken from patent publication US9556169B2, “Compounds and compositions for the treatment of parasitic diseases” (NOVARTIS AG, priority 2012, dated 2017).
